From patent US5447719A, “β-glucuronidase inhibitor” (priority 1991, dated 1995)

How the values were obtained:
[1] = target: T1, β-glucuronidase (Escherichia coli, UniProt P05804); assay: β-glucuronidase inhibition: residual activity (production of formula III compound from formula II compound, HPLC); format: biochemical; conditions: formula II substrate 100 nmol/ml, pH 6.8, 37° C., 20 min; for remaining activity at 0.0167 µM: 16.7 nM; for remaining activity at 0.0333 µM: 33.3 nM; for remaining activity at 0.1667 µM: 166.7 nM
T1 construct: purchased Sigma Chemical Co
T1 sequence (P05804 whole entry): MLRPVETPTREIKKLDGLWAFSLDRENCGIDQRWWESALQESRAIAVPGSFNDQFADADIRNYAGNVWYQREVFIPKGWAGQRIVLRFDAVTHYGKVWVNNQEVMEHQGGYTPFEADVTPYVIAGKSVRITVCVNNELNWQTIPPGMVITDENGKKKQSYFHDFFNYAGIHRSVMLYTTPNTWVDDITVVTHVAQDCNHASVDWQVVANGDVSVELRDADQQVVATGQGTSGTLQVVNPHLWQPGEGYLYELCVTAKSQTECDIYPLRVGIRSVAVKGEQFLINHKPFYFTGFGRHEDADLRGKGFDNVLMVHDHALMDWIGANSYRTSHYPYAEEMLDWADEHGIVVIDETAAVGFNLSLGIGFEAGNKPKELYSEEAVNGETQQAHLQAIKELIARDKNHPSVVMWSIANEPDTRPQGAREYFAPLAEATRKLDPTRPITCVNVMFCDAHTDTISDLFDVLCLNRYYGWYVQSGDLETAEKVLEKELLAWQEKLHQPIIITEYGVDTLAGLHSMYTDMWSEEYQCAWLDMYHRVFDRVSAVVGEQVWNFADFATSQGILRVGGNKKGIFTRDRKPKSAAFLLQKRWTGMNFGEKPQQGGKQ
Experimental: β-glucuronidase (manufactured by Sigma Chemical Co.) derived from Escherichia coli was added to a reaction solution comprising 50 μl of potassium phosphate buffer (pH: 6.8), a solution of a compound (100 nmol/ml) represented by the formula II and produced by Reference Example which will be described later and a specimen, and a reaction was allowed to proceed at 37° C. for 20 min. A glycine buffer (pH: 10.4) was added to terminate the reaction. 10 μl of the reaction mixture and 100 μl of an internal standard (camptothecin) solution were added to 1 ml of a 0.01N aqueous hydrochloric acid solution, and the mixture was applied to Bond Elute C18 (Analytichem), washed with water and 0.01N aqueous hydrochloric acid solution. Elution was effected with acetonitrile/water (1:2). 100 μl of the eluate obtained by elution with acetonitrile/water (1:2) was analyzed by high performance liquid chromatography (HPLC) under the following conditions, and the β-glucuronidase activity was calculated by using the amount of production of the compound represented by the formula III as an indication.
Apparatus: high performance liquid chromatograph HLC-803D manufactured by Toyo Soda
Analytical column: Tosoh ODS-80TM 250×4.6 mm (I.D.)
Thermostatic chamber of column: Tosoh CO-8011 40° C.
Guard column: Tosoh TSKguradgel ODS-120T
Detector: Shimazu Fluorescence HPLCMonitor RF-530
Detection wavelength: Ex380nm Em556nm
Autosampler: Tosoh AS-8000
Eluent: acetonitrile/water (1:2)

[2] = test system: bone marrow; conditions: cited from earlier work

| SMILES | remaining activity at 0.0167 µM [1] [%] | remaining activity at 0.0333 µM [1] [%] | remaining activity at 0.1667 µM [1] [%] | toxicity [2] |
| --- | --- | --- | --- | --- |
| COc1c(O[C@@H]2O[C@H](C(=O)O)[C@@H](O)[C@H](O)[C@H]2O)cc2oc(-c3ccccc3)cc(=O)c2c1O [Oroxylin A-7-O-glucuronide, oroxylin A-7-O-glucuronide] | 31.1 | 17 | 3 | – |
| O=C(O)[C@H]1O[C@@H](Oc2cc(-c3cc(=O)c4c(O)cc(O)cc4o3)ccc2O)[C@H](O)[C@@H](O)[C@@H]1O [Luteolin-3'-glucuronide, luteolin-3'-glucuronide] | 28.5 | 13.2 | 2.1 | – |
| CC[C@@]1(O)C(=O)OCc2c1cc1n(c2=O)Cc2cc3ccccc3nc2-1 [Camptothecin, camptothecin] | – | – | – | strong inhibition of bone marrow |
| O=C(O)[C@H]1O[C@@H](Oc2cc3oc(-c4ccccc4)cc(=O)c3c(O)c2O)[C@H](O)[C@@H](O)[C@@H]1O [Baicalin, baicalin] | 19 | 10.7 | 2.3 | – |
